In the NIST ThermoML archive (doi:10.1021/je400250u):
± gives the expanded uncertainty stated by the source.

What was measured:
[1] = xn = mol fraction of the nth substance listed; settings: 100 kPa, Liquid; for viscosity: Capillary tube (Ostwald / Ubbelohde) method; for mass density: Vibrating tube method
[2] = refractive index (Na D-line) (dimensionless); xn = mol fraction of the nth substance listed; settings: 100 kPa, Liquid, Standard Abbe refractometry

C1CC[C@H]2CCCC[C@@H]2C1 [trans-decahydronaphthalene] + CCCCCCCCC
Settings	mass density, [1] [kg/m3]	refractive index, [2]	viscosity, [1] [mPa·s]
293.15 K, x1 = 0.1036	732.72 ± 0.23	–	0.772 ± 0.012
293.15 K, x1 = 0.2018	746.84 ± 0.22	–	0.836 ± 0.012
293.15 K, x1 = 0.3016	761.45 ± 0.21	–	0.912 ± 0.012
293.15 K, x1 = 0.4042	776.68 ± 0.19	–	1.004 ± 0.012
293.15 K, x1 = 0.4954	790.42 ± 0.18	–	1.109 ± 0.012
293.15 K, x1 = 0.6009	806.55 ± 0.17	–	1.253 ± 0.013
293.15 K, x1 = 0.6984	821.69 ± 0.16	–	1.409 ± 0.013
293.15 K, x1 = 0.8001	837.66 ± 0.15	–	1.635 ± 0.014
293.15 K, x1 = 0.8933	852.53 ± 0.15	–	1.864 ± 0.014
293.15 K, x1 = 1	869.78 ± 0.13	–	2.112 ± 0.015
298.15 K, x1 = 0.1036	728.87 ± 0.23	1.4084 ± 0.0012	0.725 ± 0.011
298.15 K, x1 = 0.2018	743 ± 0.22	1.4146 ± 0.0012	0.781 ± 0.012
298.15 K, x1 = 0.3016	757.63 ± 0.21	1.4205 ± 0.0012	0.849 ± 0.012
298.15 K, x1 = 0.4042	772.88 ± 0.2	1.4273 ± 0.0012	0.934 ± 0.012
298.15 K, x1 = 0.4954	786.63 ± 0.18	1.4326 ± 0.0012	1.028 ± 0.012
298.15 K, x1 = 0.6009	802.78 ± 0.17	1.4397 ± 0.0012	1.154 ± 0.012
298.15 K, x1 = 0.6984	817.94 ± 0.16	1.4459 ± 0.0012	1.305 ± 0.013
298.15 K, x1 = 0.8001	833.93 ± 0.15	1.4526 ± 0.0012	1.505 ± 0.013
298.15 K, x1 = 0.8933	848.8 ± 0.15	1.4591 ± 0.0012	1.701 ± 0.014
298.15 K, x1 = 1	866.07 ± 0.13	1.4662 ± 0.0012	1.925 ± 0.015
303.15 K, x1 = 0.1036	724.99 ± 0.23	–	0.681 ± 0.011
303.15 K, x1 = 0.2018	739.14 ± 0.22	–	0.732 ± 0.011
303.15 K, x1 = 0.3016	753.79 ± 0.21	–	0.795 ± 0.011
303.15 K, x1 = 0.4042	769.06 ± 0.2	–	0.871 ± 0.012
303.15 K, x1 = 0.4954	782.83 ± 0.19	–	0.957 ± 0.012
303.15 K, x1 = 0.6009	798.99 ± 0.17	–	1.075 ± 0.012
303.15 K, x1 = 0.6984	814.17 ± 0.16	–	1.213 ± 0.012
303.15 K, x1 = 0.8001	830.18 ± 0.15	–	1.393 ± 0.013
303.15 K, x1 = 0.8933	845.07 ± 0.15	–	1.568 ± 0.013
303.15 K, x1 = 1	862.34 ± 0.14	–	1.769 ± 0.014
308.15 K, x1 = 0.1036	721.09 ± 0.23	1.4038 ± 0.0012	0.642 ± 0.011
308.15 K, x1 = 0.2018	735.26 ± 0.22	1.4105 ± 0.0012	0.688 ± 0.011
308.15 K, x1 = 0.3016	749.94 ± 0.21	1.4163 ± 0.0012	0.746 ± 0.011
308.15 K, x1 = 0.4042	765.23 ± 0.2	1.423 ± 0.0012	0.816 ± 0.011
308.15 K, x1 = 0.4954	779.01 ± 0.19	1.4286 ± 0.0012	0.893 ± 0.012
308.15 K, x1 = 0.6009	795.19 ± 0.18	1.435 ± 0.0012	0.998 ± 0.012
308.15 K, x1 = 0.6984	810.39 ± 0.17	1.4418 ± 0.0012	1.127 ± 0.012
308.15 K, x1 = 0.8001	826.41 ± 0.16	1.4486 ± 0.0012	1.29 ± 0.013
308.15 K, x1 = 0.8933	841.33 ± 0.15	1.455 ± 0.0012	1.447 ± 0.013
308.15 K, x1 = 1	858.61 ± 0.14	1.4618 ± 0.0012	1.628 ± 0.013
313.15 K, x1 = 0.1036	717.18 ± 0.23	–	0.607 ± 0.011
313.15 K, x1 = 0.2018	731.37 ± 0.22	–	0.65 ± 0.011
313.15 K, x1 = 0.3016	746.07 ± 0.21	–	0.704 ± 0.011
313.15 K, x1 = 0.4042	761.38 ± 0.2	–	0.766 ± 0.011
313.15 K, x1 = 0.4954	775.18 ± 0.19	–	0.838 ± 0.011
313.15 K, x1 = 0.6009	791.38 ± 0.18	–	0.929 ± 0.012
313.15 K, x1 = 0.6984	806.6 ± 0.17	–	1.052 ± 0.012
313.15 K, x1 = 0.8001	822.64 ± 0.16	–	1.202 ± 0.012
313.15 K, x1 = 0.8933	837.57 ± 0.15	–	1.334 ± 0.013
313.15 K, x1 = 1	854.88 ± 0.14	–	1.505 ± 0.013
318.15 K, x1 = 0.1036	713.25 ± 0.23	1.3993 ± 0.0012	0.576 ± 0.011
318.15 K, x1 = 0.2018	727.46 ± 0.22	1.406 ± 0.0012	0.614 ± 0.011
318.15 K, x1 = 0.3016	742.18 ± 0.21	1.4122 ± 0.0012	0.663 ± 0.011
318.15 K, x1 = 0.4042	757.52 ± 0.2	1.4187 ± 0.0012	0.723 ± 0.011
318.15 K, x1 = 0.4954	771.34 ± 0.19	1.4249 ± 0.0012	0.786 ± 0.011
318.15 K, x1 = 0.6009	787.56 ± 0.18	1.4312 ± 0.0012	0.869 ± 0.011
318.15 K, x1 = 0.6984	802.8 ± 0.17	1.4379 ± 0.0012	0.984 ± 0.012
318.15 K, x1 = 0.8001	818.86 ± 0.16	1.4445 ± 0.0012	1.118 ± 0.012
318.15 K, x1 = 0.8933	833.81 ± 0.15	1.4509 ± 0.0012	1.241 ± 0.012
318.15 K, x1 = 1	851.14 ± 0.14	1.4581 ± 0.0012	1.394 ± 0.013
323.15 K, x1 = 0.1036	709.3 ± 0.23	–	0.547 ± 0.011
323.15 K, x1 = 0.2018	723.54 ± 0.22	–	0.583 ± 0.011
323.15 K, x1 = 0.3016	738.28 ± 0.21	–	0.627 ± 0.011
323.15 K, x1 = 0.4042	753.64 ± 0.2	–	0.682 ± 0.011
323.15 K, x1 = 0.4954	767.48 ± 0.19	–	0.742 ± 0.011
323.15 K, x1 = 0.6009	783.73 ± 0.18	–	0.821 ± 0.011
323.15 K, x1 = 0.6984	798.99 ± 0.17	–	0.922 ± 0.012
323.15 K, x1 = 0.8001	815.08 ± 0.16	–	1.041 ± 0.012
323.15 K, x1 = 0.8933	830.05 ± 0.15	–	1.156 ± 0.012
323.15 K, x1 = 1	847.4 ± 0.14	–	1.295 ± 0.012
